Where two headings read alike, the source gives them in different places.
Columns and labels:
human placental 17β-HSD1 [1] = target: T1, human placental 17β-HSD1 (Homo sapiens, UniProt P14061); assay: in vitro radiosubstrate incubation, 17β-HSD1 inhibition (estrone to 17β-estradiol conversion); type: biochemical; settings: for remaining activity at 10 µM: read-out: Relative conversion ± SD
T1 sequence (P14061 1-328): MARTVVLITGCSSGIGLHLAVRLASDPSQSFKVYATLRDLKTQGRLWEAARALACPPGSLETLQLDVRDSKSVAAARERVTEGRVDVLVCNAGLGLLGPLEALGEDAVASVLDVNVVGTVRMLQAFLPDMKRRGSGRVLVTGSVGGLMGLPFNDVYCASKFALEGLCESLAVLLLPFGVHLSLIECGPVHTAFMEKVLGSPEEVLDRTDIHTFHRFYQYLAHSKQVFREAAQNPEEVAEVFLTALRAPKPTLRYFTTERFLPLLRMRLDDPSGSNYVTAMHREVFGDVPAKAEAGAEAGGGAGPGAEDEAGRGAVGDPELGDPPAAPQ
Experimental: Determination of 17β-HSD1 inhibition
The inhibitory effects exerted on 17β-HSD1 activity by the newly synthesized conjugates were determined via an in vitro radiosubstrate incubation method described in detail earlier.[1]
Radiolabeled Chemicals (St. Louis, MO, USA).
NADPH cofactor, other chemicals and solvents of analytical grade purity were purchased from Sigma (St. Louis, MO, USA) and Fluka (Buchs, Switzerland).
Kieselgel-G TLC layers (Si 254 F, 0.25 mm thick) were obtained from Merck (Darmstadt, Germany). Human term placenta specimens were collected and used with the ethical approval of the Institutional Human Investigation Review Board.
Human term placenta specimens were combined and homogenized with an Ultra-Turrax in 0.1 M HEPES buffer (pH 7.3) containing 1 mM EDTA and 1 mM dithiotreitol, and the cytosol was obtained by fractionated centrifugation. The substrate tritium- […]
propylene glycol in HEPES buffer solution, whereas the test compounds were applied in 10 µl of dimethyl sulfoxide solution. (These organic solvent contents in the 200 µl […]
activity substantially.) Cofactor NADPH was used in excess concentration (100 µM).
The enzymatic reaction was started by the addition of the cytosol aliquots. Incubation was carried out at 37 °C for 2.5 min and was then stopped by the addition of ethyl […]
were added to the samples. The two steroids were separated by TLC with the solvent system dichloromethane/diisopropyl ether/ethyl acetate (70:15:15 v/v) and UV spots were used to trace the separated steroids. Spots were cut out and the radioactivity of […]
counting. Test compounds were applied at 10 µM and their inhibitory effects were expressed by relative conversions, in comparison with the transformation measured in the noninhibited control incubation. Two measurements were performed for each test compound and the mean was calculated. The IC50 values (the inhibitor concentration which decreases the enzyme activity to 50%) were determined for the […]
In these cases, conversions were measured at different concentrations in the interval 0.001–50 µM. IC50 results were calculated by using unweighted iterative least-squares logistic curve-fitting by means of the “absolute IC50 calculation” function of GraphPad Prism 4.0. The IC50 of unlabeled […]
1 Bacsa, I.; Jójárt, R.; Schneider, G.; Wölfling, J.; Maróti, P.; Herman, B. E.; Szécsi,
2 Szabó, J.; Jerkovics N.; Schneider G.; Wölfling J.; Bózsity N.; Minorics R.; Zupkó I.;

human placental 17β-HSD1 [2] = target: T1, human placental 17β-HSD1; set-up: method as in PMID 26476182, PMID 27424610; settings: precursors marked with asterisk; cited from earlier work

Row | SMILES | remaining activity at 10 µM (human placental 17β-HSD1 [1]) [%] | other results
1 | C[C@@]12CC[C@@H]3c4ccc(O)c(C#Cc5ccccc5)c4CC[C@H]3[C@@H]1CCC2=O [Compound 10a] | 92 ± 15 | 
2 | COc1cc2c(cc1C#Cc1ccc(C)cc1)[C@H]1CC[C@@]3(C)C(=O)CC[C@H]3[C@@H]1CC2 [Compound 9b] | 84 ± 5 | 
3 | COc1ccc(-c2cc3cc4c(cc3o2)CC[C@@H]2[C@@H]4CC[C@@]3(C)C(=O)CC[C@@H]23)cc1 [Compound 12] | 92 ± 2 | 
4 | COc1ccc2c(c1C#Cc1ccc(C(F)(F)F)cc1)CC[C@@H]1[C@@H]2CC[C@@]2(C)C(=O)CC[C@@H]12 [Compound 11e] | 79 ± 3 | 
5 | COc1ccc(CCc2c(OC)ccc3c2CC[C@@H]2[C@@H]3CC[C@@]3(C)C(=O)CC[C@@H]23)cc1 [Compound 19] | 94 ± 1 | 
6 | COc1ccc2c(c1C#Cc1ccc(F)cc1)CC[C@@H]1[C@@H]2CC[C@@]2(C)C(=O)CC[C@@H]12 [Compound 11d] | 83 ± 1 | 
7 | C[C@@]12CC[C@@H]3c4ccc(O)c(C#Cc5ccc(F)cc5)c4CC[C@H]3[C@@H]1CCC2=O [Compound 10d] | 96 ± 7 | 
8 | COc1ccc(/C=C\c2cc3c(cc2OC)CC[C@@H]2[C@@H]3CC[C@@]3(C)C(=O)CC[C@@H]23)cc1 [Compound 13] | 70 ± 6 | 
9 | C[C@@]12CC[C@@H]3c4cc(C#Cc5ccc(F)cc5)c(O)cc4CC[C@H]3[C@@H]1CCC2=O [Compound 8d] |  | IC50 (human placental 17β-HSD1 [1]): 300 nM
10 | COc1ccc(C#Cc2c(O)ccc3c2CC[C@@H]2[C@@H]3CC[C@@]3(C)C(=O)CC[C@@H]23)cc1 [Compound 10c] | 91 ± 2 | 
11 | COc1ccc2c(c1C#Cc1ccccc1)CC[C@@H]1[C@@H]2CC[C@@]2(C)C(=O)CC[C@@H]12 [Compound 11a] | 92 ± 12 | 
12 | COc1ccc2c(c1C#Cc1ccc(C)cc1)CC[C@@H]1[C@@H]2CC[C@@]2(C)C(=O)CC[C@@H]12 [Compound 11b] | 52 ± 12 | 
13 | COc1cc2c(cc1C#Cc1ccccc1)[C@H]1CC[C@@]3(C)C(=O)CC[C@H]3[C@@H]1CC2 [Compound 9a] | 88 ± 12 | 
14 | COc1ccc(CCc2cc3c(cc2OC)CC[C@@H]2[C@@H]3CC[C@@]3(C)C(=O)CC[C@@H]23)cc1 [Compound 17] | 63 ± 8 | 
15 | COc1ccc(CCc2c(O)ccc3c2CC[C@@H]2[C@@H]3CC[C@@]3(C)C(=O)CC[C@@H]23)cc1 [Compound 18] | 98 ± 3 | 
16 | COc1cc2c(cc1C#Cc1ccc(C(F)(F)F)cc1)[C@H]1CC[C@@]3(C)C(=O)CC[C@H]3[C@@H]1CC2 [Compound 9e] | 76 ± 1 | 
17 | COc1ccc2c(c1I)CC[C@@H]1[C@@H]2CC[C@@]2(C)C(=O)CC[C@@H]12 [Compound 6] |  | IC50 (human placental 17β-HSD1 [2]): 560 nM
18 | Cc1ccc(C#Cc2c(O)ccc3c2CC[C@@H]2[C@@H]3CC[C@@]3(C)C(=O)CC[C@@H]23)cc1 [Compound 10b] | 89 ± 0.4 | 
19 | COc1ccc(C#Cc2cc3c(cc2OC)CC[C@@H]2[C@@H]3CC[C@@]3(C)C(=O)CC[C@@H]23)cc1 [Compound 9c] | 85 ± 1 | 
20 | COc1cc2c(cc1C#Cc1ccc(F)cc1)[C@H]1CC[C@@]3(C)C(=O)CC[C@H]3[C@@H]1CC2 [Compound 9d] | 94 ± 5 | 
21 | C[C@@]12CC[C@@H]3c4ccc(O)c(C#Cc5ccc(C(F)(F)F)cc5)c4CC[C@H]3[C@@H]1CCC2=O [Compound 10e] | 85 ± 1 | 
22 | COc1cc2c(cc1I)[C@H]1CC[C@@]3(C)C(=O)CC[C@H]3[C@@H]1CC2 [Compound 4] |  | IC50 (human placental 17β-HSD1 [2]): > 10000 nM
23 | Cc1ccc(C#Cc2cc3c(cc2O)CC[C@@H]2[C@@H]3CC[C@@]3(C)C(=O)CC[C@@H]23)cc1 [Compound 8b] |  | IC50 (human placental 17β-HSD1 [1]): 1400 nM
24 | COc1ccc(-c2cc3c4c(ccc3o2)[C@H]2CC[C@@]3(C)C(=O)CC[C@H]3[C@@H]2CC4)cc1 [Compound 14] | 102 ± 6 | 
25 | COc1ccc(CCc2cc3c(cc2O)CC[C@@H]2[C@@H]3CC[C@@]3(C)C(=O)CC[C@@H]23)cc1 [Compound 16] |  | IC50 (human placental 17β-HSD1 [1]): 470 nM
26 | C[C@@]12CC[C@@H]3c4cc(C#Cc5ccccc5)c(O)cc4CC[C@H]3[C@@H]1CCC2=O [Compound 8a] |  | IC50 (human placental 17β-HSD1 [1]): 150 nM
27 | COc1ccc(/C=C/c2c(OC)ccc3c2CC[C@@H]2[C@@H]3CC[C@@]3(C)C(=O)CC[C@@H]23)cc1 [Compound 15] | 80 ± 12 | 
28 | COc1ccc(C#Cc2c(OC)ccc3c2CC[C@@H]2[C@@H]3CC[C@@]3(C)C(=O)CC[C@@H]23)cc1 [Compound 11c] | 83 ± 8 | 
29 | COc1ccc(C#Cc2cc3c(cc2O)CC[C@@H]2[C@@H]3CC[C@@]3(C)C(=O)CC[C@@H]23)cc1 [Compound 8c] |  | IC50 (human placental 17β-HSD1 [1]): 230 nM
30 | C[C@@]12CC[C@@H]3c4cc(C#Cc5ccc(C(F)(F)F)cc5)c(O)cc4CC[C@H]3[C@@H]1CCC2=O [Compound 8e] |  | IC50 (human placental 17β-HSD1 [1]): 930 nM

Reference: publication PMC5496578 (Beilstein Journal of Organic Chemistry, 2017)
